The values that follow come from patent US20210087184A1, “AMINO-BENZOISOTHIAZOLE AND AMINO-BENZOISOTHIADIAZOLE AMIDE COMPOUNDS” (Aerie Pharmaceuticals, Inc., priority 2018, published 2021).

A short description of this test: Topical pharmaceutical composition administered to the eyes (Examples 246-253). The format is in vivo. Conditions: for intraocular pressure / neuroprotective agent: 0.50 wt % topical eye drop composition of Example 246. The method, then: Topical pharmaceutical compositions for lowering intraocular pressure are prepared by conventional methods and formulated as follows: […]
A compound according to this disclosure is used as the 6-aminobenzoisothiazole derivative. […]

[1] abbreviates: 0.50 wt % topical eye drop composition of Example 246, twice per day.

Each structure is given as a SMILES string. Counter-ions that a name gives are not always drawn.

Regarding `Cl.Cl.NCC(C(=O)Nc1ccc2cnsc2c1F)c1ccsc1` (stereo not drawn) [3-amino-N-(7-fluoro-benzoisothiazol-6-yl)-2-(thiophen-3-yl)propanamide dihydrochloride], the intraocular pressure result is “substantially decreases” and the neuroprotective agent result is listed as “serves as a neuroprotective agent”.
The like results for `NC(CC(=O)Nc1ccc2cnsc2c1)c1ccsc1` (stereo not drawn) [Example E6, 3-amino-N-(benzoisothiazol-6-yl)-3-(thiophen-3-yl)propanamide dihydrochloride] were, in that order, “substantially decreases” and “serves as a neuroprotective agent”.
Take `CN(C)CC(C(=O)Nc1ccc2cnsc2c1)c1ccsc1` (stereo not drawn) [Example E44, 3-(dimethylamino)-N-(benzoisothiazol-6-yl)-2-(thiophen-3-yl)propanamide dihydrochloride]: the “hyperemia, redness and ocular irritation” value (0.50 wt % topical eye drop composition of Example 246, as needed) is listed as “substantially decreases”.
Turning to `NCC(C(=O)Nc1ccc2cnsc2c1)c1ccsc1` (stereo not drawn) [Example E49, 3-amino-N-(benzoisothiazol-6-yl)-2-(thiophen-3-yl)propanamide dihydrochloride], the intraocular pressure result is on record as “substantially decreases”.
On to `O=C(NCc1ccccn1)c1ccc([C@H]2C[C@@H]2C(=O)Nc2ccc3cnsc3c2)cc1` [Example E150, 4-((1S,2S)-2-(benzoisothiazol-6-ylcarbamoyl)cyclopropyl)-N-(pyridin-2-ylmethyl)benzamide], for which the intraocular pressure result was “substantially decreases”. Also, under setting [1], the allergic symptoms entry is recorded as “substantially decreases” and the dry eye syndrome result is on record as “relieves”.
